# Counter-ions that a name gives are not always drawn.
# Target: T1, human neutrophil elastase (HNE) (Homo sapiens, UniProt P08246)
# T1 construct: purchased Sigma E8140
# T1 sequence (P08246 30-247 limits assumed): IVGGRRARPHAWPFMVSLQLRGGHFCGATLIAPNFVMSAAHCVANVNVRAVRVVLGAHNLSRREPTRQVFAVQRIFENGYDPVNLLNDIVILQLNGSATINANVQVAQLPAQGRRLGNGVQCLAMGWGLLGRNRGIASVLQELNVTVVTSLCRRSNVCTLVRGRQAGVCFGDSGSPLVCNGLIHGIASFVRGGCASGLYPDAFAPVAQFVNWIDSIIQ
# Experiment: HNE enzyme activity assay
# Assay type: biochemical
# Settings: human leukocyte elastase, substrate MeOSuc-Ala-Ala-Pro-Val-AMC 100 μM, 25° C. for 30 minutes, fluorescence; read-out: HNE inhibition
# Description: Compounds of the present invention were tested for potency in a human neutrophil elastase (HNE) enzyme activity assay.
# Assays were performed in 96-well plates in a total assay volume of 100 μl. The final concentration of elastase enzyme (human leukocyte elastase, Sigma E8140) was 0.0036 units/well […]. The peptide substrate (MeOSuc-Ala-Ala-Pro-Val-AMC, Calbiochem #324740) was used at a final concentration of 100 μM. The final concentration of DMSO was 1% in the assay buffer (0.05M Tris.HCl, 0.1M NaCl, 0.1M CaCl2, 0.0005% brij-35, pH 7.5). The enzymatic reaction was started by addition of the enzyme and incubated at 25° C. for 30 minutes. After incubation, the reaction was stopped by addition of soybean trypsin inhibitor (Sigma T9003) at a final concentration of 50 μg/well. Fluorescence was measured using a Molecular Devices fluorescence plate reader using 380 nm excitation and 460 nm emission wavelengths.
# A dose response to each compound was performed and the effect of compound in each experiment was expressed as a percentage inhibition of the control enzyme fluorescence. Dose response curves were plotted and compound potency (IC50) was determined. Compounds were tested in at least two separate experiments.
row,SMILES,IC50 [nM]
1,"Cc1c(-c2ccnn2-c2ccc(C#N)cc2)cn2c(=O)n(Cc3ccc(S(C)(=O)=O)cc3)nc2c1-c1cccc(C(F)(F)F)c1 [Example 10, 4-{5-[2-(4-Methanesulfonyl-benzyl)-7-methyl-3-oxo-8-(3-trifluoromethyl-phenyl)-2,3-dihydro-[1,2,4]triazolo[4,3-a]pyridin-6-yl]-pyrazol-1-yl}-benzonitrile]",100 to 500
2,"CNC(=O)Cn1nc2c(-c3cccc(C(F)(F)F)c3)c(C)c(-c3ccnn3-c3ccc(C#N)cc3)cn2c1=O [Example 12, 2-[6-[2-(4-Cyano-phenyl)-2H-pyrazol-3-yl]-7-methyl-3-oxo-8-(3-trifluoromethyl-phenyl)-[1,2,4]triazolo[4,3-a]pyridin-2-yl]-N-methyl-acetamide]",100 to 500
3,"Cc1c(-c2ccnn2-c2ccc(C#N)cc2)cn2nc(NC(=O)c3ccc(S(C)(=O)=O)cc3)nc2c1-c1cccc(C(F)(F)F)c1 [Example 22, N-[6-[2-(4-Cyano-phenyl)-2H-pyrazol-3-yl]-7-methyl-8-(3-trifluoromethyl-phenyl)-[1,2,4]triazolo[1,5-a]pyridin-2-yl]-4-methanesulfonyl-benzamide]",< 20
4,"Cc1nc2c(-c3cccc(C(F)(F)F)c3)c(C)c(-c3ccnn3-c3ccc(C#N)cc3)cn2n1 [Example 4, 4-{5-[2,7-Dimethyl-8-(3-trifluoromethyl-phenyl)-[1,2,4]triazolo[1,5-a]pyridin-6-yl]-pyrazol-1-yl}-benzonitrile]",> 500
5,"Cc1c(-c2ccnn2-c2ccc(C#N)cc2)cn2nc(NC(=O)CN(C)C)nc2c1-c1cccc(C(F)(F)F)c1 [Example 14, N-[6-[2-(4-Cyano-phenyl)-2H-pyrazol-3-yl]-7-methyl-8-(3-trifluoromethyl-phenyl)-[1,2,4]triazolo[1,5-a]pyridin-2-yl]-2-dimethylamino-acetamide]",< 20

# Now from value to molecule:
row,IC50 [nM],SMILES
1,< 20,"Cc1c(-c2ccnn2-c2ccc(C#N)cc2)cn2nc(NC(=O)OCCC[N+](C)(C)C)nc2c1-c1cccc(C(F)(F)F)c1 [Example 37, {3-[6-[2-(4-Cyano-phenyl)-2H-pyrazol-3-yl]-7-methyl-8-(3-trifluoromethyl-phenyl)-[1,2,4]triazolo[1,5-a]pyridin-2-ylcarbamoyloxy]-propyl}-trimethyl-ammonium formate]"
2,< 20,"Cc1c(-c2ccnn2-c2ccc(C#N)cc2)cn2nc(NCCC[N+](C)(C)C)nc2c1-c1cccc(C(F)(F)F)c1 [Example 32, {3-[6-[2-(4-Cyano-phenyl)-2H-pyrazol-3-yl]-7-methyl-8-(3-trifluoromethyl-phenyl)-[1,2,4]triazolo[1,5-a]pyridin-2-ylamino]-propyl}-trimethyl-ammonium benzenesulfonate]"
3,< 20,"COCCOC(=O)Nc1nc2c(-c3cccc(C(F)(F)F)c3)c(C)c(-c3ccnn3-c3ccc(C#N)cc3)cn2n1 [Example 36, [6-[2-(4-Cyano-phenyl)-2H-pyrazol-3-yl]-7-methyl-8-(3-trifluoromethyl-phenyl)-[1,2,4]triazolo[1,5-a]pyridin-2-yl]-carbamic acid 2-methoxyethyl ester]"
4,< 20,"Cc1c(-c2ccnn2-c2ccc(C#N)cc2S(C)(=O)=O)cn2nc(N)nc2c1-c1cccc(C(F)(F)F)c1 [Example 40, 4-{5-[2-Amino-7-methyl-8-(3-trifluoromethyl-phenyl)-[1,2,4]triazolo[1,5-a]pyridin-6-yl]pyrazol-1-yl}-3-methanesulfonyl-benzonitrile]"
5,< 20,"Cc1c(-c2ccnn2-c2ccc(C#N)cc2)cn2nc(NCCCC[N+](C)(C)C)nc2c1-c1cccc(C(F)(F)F)c1 [Example 34, {4-[6-[2-(4-Cyano-phenyl)-2H-pyrazol-3-yl]-7-methyl-8-(3-trifluoromethyl-phenyl)-[1,2,4]triazolo[1,5-a]pyridin-2-ylamino]-butyl}-trimethyl-ammonium formate]"

# From patent US9199984B2, “Inhibition of enzymes” (CHIESI FARMACEUTICI S.p.A., priority 2012, dated 2015)
